Laboratory results: patent EP3884941A1, “INFLAMMASOME INHIBITORS AND USE THEREOF” (CENTRO DE INVESTIGACION PRINCIPE FELIPE, priority 2020, dated 2021)
“Also recorded” adds a separate entry of the source. Values belong to the compound of their own block, whether it stands above or below them. Peptide text beside a SMILES is read from it. * marks the point of attachment. Cbz = O=C(OCc1ccccc1)*; CH2F = FC*

Legend:
[1] = target: T1, ASC-mediated PC1 activation (Homo sapiens, UniProt P29466); test: ASC-mediated PC1 reconstitution in vitro assay (primary screening); assay type: biochemical; conditions: PC1 50 nM, ASC 300 nM, substrate Ac-WEHD-AFC; read-out: IC50
T1 construct: His; made in house; host or cells: PC1: Sf9 insect cells (baculovirus)
T1 sequence (P29466 1-404): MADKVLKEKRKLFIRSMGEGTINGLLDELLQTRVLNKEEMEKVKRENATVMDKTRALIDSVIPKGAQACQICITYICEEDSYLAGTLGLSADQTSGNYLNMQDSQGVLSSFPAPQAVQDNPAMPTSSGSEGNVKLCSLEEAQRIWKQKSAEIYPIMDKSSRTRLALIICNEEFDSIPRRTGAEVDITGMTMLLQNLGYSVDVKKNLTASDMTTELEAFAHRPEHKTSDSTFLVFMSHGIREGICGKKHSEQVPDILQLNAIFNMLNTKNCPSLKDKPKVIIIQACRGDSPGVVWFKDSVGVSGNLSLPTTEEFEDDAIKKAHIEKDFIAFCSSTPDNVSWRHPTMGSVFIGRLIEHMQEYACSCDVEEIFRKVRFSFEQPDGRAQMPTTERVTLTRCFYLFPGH
Experimental: Recombinant PC1 (50 nM) was preincubated with the indicated concentrations of compounds for 20 min at RT in Assay Buffer (20 mM HEPES pH 7.5, 10 mM KCI, 1.5 mM MgCl2, 1mM EDTA, 1 mM EGTA, 1 mM DTT). Then 300 nM of ASC were added and incubated for another 10 min period. Caspase-1 activation was measured using fluorogenic substrate Ac-WEHD-AFC (80 µM; Enzo Life Sciences) by continuously monitoring the release of the AFC (7-Amino-4-trifluoromethylcoumarin) product in a Wallac Victor workstation. The compounds were initially tested at 20 µM with 1% of DMSO. Data are reported as the percentage of inhibition compared with the absence of the compound.
The materials and methods employed in these experiments are now described.

[2] = test system: ASC specks in THP1-ASC-GFP cells; test: ASC speck assay; assay type: cell-based, human; conditions: THP-1 ASC GFP, LPS 100 ng/mL + nigericin 10 µM; MM01 10 µM, VX-765 5 µM
Experimental: THP1-ASC-GFP cells were seeded at 1×10^6/ml the day prior to use in experiments on 35 mm glass-bottom culture dishes. The following day medium was replaced containing the indicated inhibitors or vehicle for 30 min. Cells were then primed with 100 ng/ml LPS for 3h and stimulated with 10 µM nigericin for 30 min. Samples were fixed in 4% paraformaldehyde (PFA) for 10 min at RT and washed several times. Coverslips were prepared in mounting medium plus DAPI and analyzed in a Leica SP8 confocal microscope.

[3] = test system: NLRP3 inflammasome; test: human PBMCs cellular assay, LPS plus ATP; assay type: cell-based; conditions: human PBMCs, LPS and ATP, VX-765 5 µM
Experimental: Human peripheral blood mononuclear cells (PBMCs) are lymphocytes and monocytes. PBMCs were separated from the whole blood by a density gradient centrifugation method using Ficoll Histopaque. Purified PBMCs were plated in 24-well plates at 5000000 cells/well in free-serum RPMI medium. Cells were primed for 3 h with 10 ng/ml pure LPS followed by 4 h with compounds and 5 mM ATP. Supernatants were harvested and clarified by centrifugation at 1500 rpm at RT and cytokine and caspase-1 activation analysis was performed as previously described.

[4] = test system: NLRP3 inflammasome; test: inflammasome activation cellular assay, LPS plus ATP, THP-1 cells; assay type: cell-based, human; conditions: THP-1, LPS + ATP; pyroptosis / cell viability; MM01 1, 2.5 or 5 µM, VX-765 5 µM
Experimental: The MM01 compound was evaluated in the THP-1, or PMA-differentiated THP-1 cells (50 nM PMA for 24h) stimulated with lipopolysaccharide (LPS) plus adenosine triphosphate (ATP) to stimulate ASC-dependent inflammasomes NLRP3. Briefly, 1x10^6 cells were seeded in 6-well plates in 1 mL RPMI media that contained 1% FBS. Cells were either mock-treated or primed with compounds at the indicated concentrations for 30 min, followed by treatment with 100 ng/mL LPS (Sigma) and 2.5 mM ATP (Sigma) for 6 h at 37°C. In the case of nigericin stimulation, cells were primed with LPS for 3h, and then 10 µM nigericin (Sigma) was added for 30 min. Supernatants were harvested and clarified by centrifugation at 1500 rpm at RT, and a cytokine analysis was performed. Both IL-1β secretion and the release of IL-18were monitored by an ELISA assay (BD OptEIA™ Human IL-1β ELISA Kit and Human IL-18 Module Set eBioscience) following the manufacturer's instructions. Cell viability was analyzed in parallel by evaluating the release of lactate dehydrogenase (LDH) according to a commercial kit (CytoTox-ONE™ Homogeneous Membrane Integrity Assay; Promega). The release of LDH was calculated using the formula: the release of LDH (%) = 100x (Abs490 treated -Abs490 untreated cells)/ Abs490 untreated cells lysed with Triton 9% (maximum release of LDH).
The supernatants of the treated cells were precipitated by the chloroform-methanol method. Pellets were obtained by lysing cells in 25 mM of Tris-HCI pH 7.4, 1 mM EDTA, 1 mM EGTA and 1% SDS, plus protease and phosphatase inhibitors. The protein concentration was determined by the BCA protein assay. Samples were separated in a 14% SDS-PAGE gel, transferred to a nitrocellulose membrane and blocked with 5% skimmed milk for 1 h. Then the membrane was incubated overnight with primary antibodies: α-casp1 (1:1000; Cell Signaling 2225), α-IL-1β (1:1000; Acris R1130P), α-NLRP3 (1:1000; Cell Signaling 15101), α-tubulin (1:3000; Abcam ab6160) at 4°C. Membranes were washed and probed with the appropriate secondary antibody conjugated with peroxidase for enhanced chemiluminescence detection (Amersham Pharmacia Biotech).

[5] = target: T2, Recombinant caspase-1 (Homo sapiens, UniProt P29466); test: caspase-1 in vitro activation assay (secondary screening); assay type: biochemical; conditions: preactivated recombinant caspase-1
T2 sequence (P29466 120-297 limits assumed): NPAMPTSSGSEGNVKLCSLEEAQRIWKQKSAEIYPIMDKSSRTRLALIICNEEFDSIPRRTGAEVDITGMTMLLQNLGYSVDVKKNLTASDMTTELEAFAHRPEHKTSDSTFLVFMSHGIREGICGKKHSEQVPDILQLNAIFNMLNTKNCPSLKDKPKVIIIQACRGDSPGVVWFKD
T2 sequence (P29466 317-404 limits assumed): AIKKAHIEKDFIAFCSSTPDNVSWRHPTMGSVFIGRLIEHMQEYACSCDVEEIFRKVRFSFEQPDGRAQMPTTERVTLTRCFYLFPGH
Experimental: Recombinant caspase-1 (50 nM) was incubated with the indicated concentrations of compounds for 20 min at RT in Assay Buffer. Then fluorogenic substrate Ac-WEHD-AFC (80 µM) was added, and activity was monitored in a Wallac Victor workstation. Data are reported as the percentage of inhibition compared with the absence of the inhibitor.

IC50 [1]: 0.3 ± 0.1 µM
SMILES: CCCCN1C(=O)/C(=C2\SC(=S)N(Cc3ccco3)C2=O)c2cc(Br)ccc21

IC50 [1]: 1.5 ± 0.8 µM
SMILES: COCCN1C(=O)/C(=C2/C(=O)Nc3ccc(Br)cc32)SC1=S

SMILES: CCO[C@@H]1OC(=O)C[C@@H]1NC(=O)[C@@H]1CCCN1C(=O)[C@@H](NC(=O)c1ccc(N)c(Cl)c1)C(C)(C)C [VX-765, reference compound]
ASC speck formation [2]: not inhibited
inflammatory cell death ([3]; LDH release): did not protect
cytokine release [3]: able to inhibit
LDH release [4]: does not decrease; also recorded: no recovery of cell viability

caspase-1 activity [5]: inhibits
SMILES: CC(NC(=O)C(NC(=O)OCc1ccccc1)C(C)C)C(=O)NC(CC(=O)O)C(=O)CF (stereo not drawn) [zVAD, reference compound] (Cbz-Val-Ala-Asp-CH2F; configuration not given here)
